Assay results from ChEMBL document CHEMBL3232840, “Anti-proliferative activity of 2,6-dichloro-9- or 7-(ethoxycarbonylmethyl)-9H- or 7H-purines against several human solid tumour cell lines” (Eur J Med Chem, 2014).
pIC50: −log10 of the molar value.

Legend:
[1] = Antiproliferative activity against human G361 cells after 3 days by sulforhodamine-B colorimetric assay; type: functional, cell-based; conditions: G-361, 72 h
[2] = system: HCT-116; experiment: Antiproliferative activity against human HCT116 cells after 3 days by sulforhodamine-B colorimetric assay; type: functional, cell-based; conditions: HCT-116, 72 h
[3] = system: A-375; experiment: Antiproliferative activity against human A375 cells after 3 days by sulforhodamine-B colorimetric assay; type: functional, cell-based; conditions: A-375, 72 h
[4] = system: MCF7; experiment: Antiproliferative activity against human MCF7 cells after 3 days by sulforhodamine-B colorimetric assay; type: functional, cell-based; conditions: MCF7, 72 h
[5] = system: MCF7; experiment: Cell cycle arrest human MCF7 cells assessed as accumulation at G2/M phase at IC50 after 24 hrs by flow cytometry (reference value: 50.91 +/- 1.15 % ); type: functional
[6] = system: MCF7; experiment: Induction of apoptosis in human MCF7 cells at IC50 after 24 hrs by annexin V-FITC/PI-based flow cytometry (reference value: 10.80 +/- 0.85 % ); type: functional
[7] = system: A-375; experiment: Cell cycle arrest human A375 cells assessed as accumulation at G0/G1 phase at IC50 after 24 hrs by flow cytometry (reference value: 57.97 +/- 0.93 % ); type: functional
[8] = system: A-375; experiment: Induction of apoptosis in human A375 cells at IC50 after 24 hrs by annexin V-FITC/PI-based flow cytometry (reference value: 6.83 +/- 0.40 % ); type: functional
[9] = system: HCT-116; experiment: Induction of apoptosis in human HCT116 cells at IC50 after 24 hrs by annexin V-FITC/PI-based flow cytometry (reference value: 7.27 +/- 1.57 % ); type: functional
[10] = system: HCT-116; experiment: Cell cycle arrest human HCT116 cells assessed as accumulation at G2/M phase at IC50 after 24 hrs by flow cytometry (reference value: 17.02 +/- 1.40 % ); type: functional
[11] = system: HCT-116; experiment: Cell cycle arrest human HCT116 cells assessed as accumulation at G0/G1 phase at IC50 after 24 hrs by flow cytometry (reference value: 44.70 +/- 0.38 % ); type: functional
[12] = system: MCF7; experiment: Cell cycle arrest human MCF7 cells assessed as accumulation at G0/G1 phase at IC50 after 24 hrs by flow cytometry (reference value: 34.58 +/- 0.09 % ); type: functional
[13] = system: MCF7; experiment: Cell cycle arrest human MCF7 cells assessed as accumulation at S phase at IC50 after 24 hrs by flow cytometry (reference value: 14.50 +/- 1.06 % ); type: functional
[14] = system: A-375; experiment: Cell cycle arrest human A375 cells assessed as accumulation at S phase at IC50 after 24 hrs by flow cytometry (reference value: 29.60 +/- 0.78 % ); type: functional
[15] = system: A-375; experiment: Cell cycle arrest human A375 cells assessed as accumulation at G2/M phase at IC50 after 24 hrs by flow cytometry (reference value: 12.42 +/- 0.70 % ); type: functional
[16] = system: HCT-116; experiment: Cell cycle arrest human HCT116 cells assessed as accumulation at S phase at IC50 after 24 hrs by flow cytometry (reference value: 38.26 +/- 1.40 % ); type: functional

SMILES	pIC50 [1]	pIC50 [2]	pIC50 [3]	pIC50 [4]	Activity [5]	Activity [6]	Activity [7]	Activity [8]	Activity [9]	Activity [10]	Activity [11]	Activity [12]	Activity [13]	Activity [14]	Activity [15]	Activity [16]
CCOC(=O)Cn1cnc2c(Br)ncnc21	4.80	4.63	4.87	4.85												
CCOC(=O)Cn1cnc2c(Cl)ncnc21	4.67	5.28	4.72	4.45												
CCOC(=O)Cn1cc(F)c(=O)[nH]c1=O	4.54	4.61	4.42	4.60												
CCOC(=O)Cn1cnc2ncnc(Br)c21	4.74	4.25	4.57	4.69												
CCOC(=O)Cn1cnc2ncnc(Cl)c21	4.67	4.17	4.84	4.30												
CCOC(=O)Cn1cnc2c(Cl)nc(Cl)nc21	5.51	5.21	5.93	5.41	54.63%	20.53%	58.48%	35.37%	20.2%	17.31%	45.93%	28.17%	15.39%	28.78%	12.73%	36.75%
CCOC(=O)Cn1c(=O)[nH]cc(F)c1=O	4.60	4.65	4.29	4.52												
CCOC(=O)Cn1cnc2nc(Cl)nc(Cl)c21	5.25	5.20	5.30	5.25	47.19%	24.1%	70.55%	27.13%	17.03%	28.47%	33.58%	34.54%	18.27%	20.1%	9.34%	37.93%
